What was measured:
S. aureus ATCC 25923 = assay: broth microdilution growth inhibition (CLSI), S. aureus ATCC 25923; format: cell-based; settings: CAMHB broth microdilution, read-out: concentration (μM) which inhibits 50% (or more) growth
Procedure: (§1) Iron-free enterobactin from E. coli was purchased from Sigma-Aldrich (E3910) and from EMC (Tübingen, Germany), iron-free salmochelin S4 was purchased from EMC (Tübingen, Germany).
(§2) Bacterial strains were provided by the Clinical Microbiology Laboratory at Sheba Medical Center.
(§3) Bacterial final inoculum was 5×10^5 colony-forming units ml^−1. Enterobactin and salmochelin were dissolved in 100% dimethylsulfoxide (DMSO) to a stock solution of 10 μM and further diluted using CAMHB to final concentrations.

MRSA SA 742 USA300 = assay: broth microdilution growth inhibition (CLSI), MRSA SA 742 USA300; format: cell-based, S. aureus; settings: CAMHB broth microdilution, read-out: concentration (μM) which inhibits 50% (or more) growth
Procedure: as §1, §2, §3

MRSA SA 196 = assay: broth microdilution growth inhibition (CLSI), MRSA SA 196; format: cell-based, S. aureus; settings: CAMHB broth microdilution, read-out: concentration (μM) which inhibits 50% (or more) growth
Procedure: as §1, §2, §3

MSSA SA 197 USA300 = assay: broth microdilution growth inhibition (CLSI), MSSA SA 197 USA300; format: cell-based, S. aureus; settings: CAMHB broth microdilution, read-out: concentration (μM) which inhibits 50% (or more) growth
Procedure: as §1, §2, §3

MRSA SA 198 USA300 = assay: broth microdilution growth inhibition (CLSI), MRSA SA 198; format: cell-based, S. aureus; settings: CAMHB broth microdilution, read-out: concentration (μM) which inhibits 50% (or more) growth
Procedure: as §1, §2, §3

MRSA SA 255 = assay: broth microdilution growth inhibition (CLSI), MRSA SA 255; format: cell-based, S. aureus; settings: CAMHB broth microdilution, read-out: concentration (μM) which inhibits 50% (or more) growth
Procedure: as §1, §2, §3

MSSA SA 256 = assay: broth microdilution growth inhibition (CLSI), MSSA SA 256; format: cell-based, S. aureus; settings: CAMHB broth microdilution, read-out: concentration (μM) which inhibits 50% (or more) growth
Procedure: as §1, §2, §3

[1] = system: clinical isolates of MRSA USA300; assay: inhibitory effect on clinical isolates of MRSA USA300 (FIGS. 1A-B); format: cell-based, Staphylococcus aureus
Procedure: as §1, §2, §3

VRE 195 = assay: inhibitory effect on clinical isolate VRE 195; format: cell-based, vancomycin resistant Enterococci; settings: FIG. 2A, FIG. 3A
Procedure: as §1, §2, §3

VRE 197 = assay: inhibitory effect on clinical isolate VRE 197; format: cell-based, vancomycin resistant Enterococci; settings: FIG. 2B, FIG. 3B
Procedure: as §1, §2, §3

S. aureus = assay: antimicrobial activity against S. aureus (combinations, iron ions; strain not named); format: cell-based; settings: iron ions added; FIGS. 6A-B
Procedure: as §1, §2, §3

## O=C(N[C@H]1COC(=O)[C@@H](NC(=O)c2cccc(O)c2O)COC(=O)[C@@H](NC(=O)c2cccc(O)c2O)COC1=O)c1cccc(O)c1O [Enterobactin, enterobactin]
S. aureus ATCC 25923
  IC50: 6 ± 2.7 µM
MRSA SA 742 USA300
  IC50: 10 µM
MRSA SA 196
  IC50: 5 µM
MSSA SA 197 USA300
  IC50: > 5 µM
MRSA SA 198 USA300
  IC50: > 5 µM
MRSA SA 255
  IC50: > 5 µM
MSSA SA 256
  IC50: > 5 µM
[1]
  inhibitory effect on clinical isolates of MRSA USA300: inhibitory effect
VRE 195
  inhibitory effect on clinical isolates of VRE 195: inhibitory effect
VRE 197
  inhibitory effect on clinical isolates of VRE 197: inhibitory effect
S. aureus
  antimicrobial activity against S. aureus in the presence of iron ions: reduce but do not abolish

## O=C(N[C@H]1COC(=O)[C@@H](NC(=O)c2cc([C@@H]3O[C@H](CO)[C@@H](O)[C@H](O)[C@H]3O)cc(O)c2O)COC(=O)[C@@H](NC(=O)c2cc([C@@H]3O[C@H](CO)[C@@H](O)[C@H](O)[C@H]3O)cc(O)c2O)COC1=O)c1cccc(O)c1O [Salmochelin, Salmochelin S4]
S. aureus ATCC 25923
  IC50: 2.4 ± 0.22 µM
MRSA SA 742 USA300
  IC50: 3.12 ± 1.25 µM
MRSA SA 196
  IC50: 2.5 µM
MSSA SA 197 USA300
  IC50: 2.5 µM
MRSA SA 198 USA300
  IC50: 5 µM
MRSA SA 255
  IC50: 5 µM
MSSA SA 256
  IC50: 5 µM
[1]
  inhibitory effect on clinical isolates of MRSA USA300: inhibitory effect
VRE 195
  inhibitory effect on clinical isolates of VRE 195: inhibitory effect
VRE 197
  inhibitory effect on clinical isolates of VRE 197: inhibitory effect
S. aureus
  antimicrobial activity against S. aureus in the presence of iron ions: reduce but do not abolish
